Measurements taken from patent US7312330B2, “Bicycloheteroarylamine compounds as ion channel ligands and uses thereof” (Renovis, Inc., priority 2003, dated 2007).
pIC50: −log10 of the molar value.

Molecular target: hVR1 (Homo sapiens, UniProt Q8NER1)
Test: Calcium imaging assay (Fura2) of VR1 antagonists, proton stimulation
Assay type: cell-based
Conditions: HEK 293 cells expressing hVR1; for pIC50: calcium ion influx induced by proton stimulation; for % Inhibition @ 1 μM: calcium ion influx induced by proton stimulation (pH 5.7)
Excerpt: VR1 protein is a heat-gated cation channel that exchanges about 10 calcium ions for every sodium ion resulting in neuronal membrane depolarization and elevated intracellular calcium ion levels. Therefore the functional activity of compounds at the VR1 receptor may be determined by measuring changes in intracellular calcium levels in 293 cells expressing capsaicin-insensitive VR1 receptor variants. A dual wavelength ratiometric dye, Fura2, was used as an indicator of relative levels of calcium ions in a 96 well format using a bench top scanning fluorometer with integrated fluidics and temperature control (Flex Station, Molecular Devices).
A dual wavelength ratiometric dye, Fura2, was used as an indicator of relative levels of [Ca2+] in a 96 well format using a bench top scanning fluorometer with integrated fluidics and temperature control (Flex Station, Molecular Devices).
HEK 293 cells expressing hVR1 were grown on PDL coated 96-well black-walled plates, in the presence of a DMEM medium containing 5% Penstrep, 5% Glutamax, 200 ug/mL Hygromycin, 5 μg/mL Blasticide and 10% heat inactivated FBS. Prior to assay, the cells were loaded with 5 μg/mL Fura2 in normal saline solution at 37° C. for 40 minutes. Cells were then washed with normal saline to remove the dye.
The assay consists of two stages; a pre-treatment phase followed by a treatment phase. In the pretreatment phase, 50 μl of a compound solution was added to the cells. Immediately following, 50 μl of the test compound in the presence of agonist (a saline solution plus 10 mM citric acid bufferd to pH 5.7 with HCl) was added. Fura2 was excited at […] to indicate relative calcium concentration. Changes in wavelength measurements were made throughout the course of the experiment in 4 second intervals over a period of 3 minutes. The fluorescence ratio from the excitations at […] was recorded for analysis. Responses were measured as peak fluorescence ratio after compound-agonist addition minus baseline fluorescence ratio prior to treatment and were calculated for each concentration tested using the SoftMaxPro software. Data was expressed as percentage inhibition calculated as follows: […]
A dose response curve was then determined, from which the ID50 of each compound was calculated.

Chain of hVR1 (Q8NER1 whole entry): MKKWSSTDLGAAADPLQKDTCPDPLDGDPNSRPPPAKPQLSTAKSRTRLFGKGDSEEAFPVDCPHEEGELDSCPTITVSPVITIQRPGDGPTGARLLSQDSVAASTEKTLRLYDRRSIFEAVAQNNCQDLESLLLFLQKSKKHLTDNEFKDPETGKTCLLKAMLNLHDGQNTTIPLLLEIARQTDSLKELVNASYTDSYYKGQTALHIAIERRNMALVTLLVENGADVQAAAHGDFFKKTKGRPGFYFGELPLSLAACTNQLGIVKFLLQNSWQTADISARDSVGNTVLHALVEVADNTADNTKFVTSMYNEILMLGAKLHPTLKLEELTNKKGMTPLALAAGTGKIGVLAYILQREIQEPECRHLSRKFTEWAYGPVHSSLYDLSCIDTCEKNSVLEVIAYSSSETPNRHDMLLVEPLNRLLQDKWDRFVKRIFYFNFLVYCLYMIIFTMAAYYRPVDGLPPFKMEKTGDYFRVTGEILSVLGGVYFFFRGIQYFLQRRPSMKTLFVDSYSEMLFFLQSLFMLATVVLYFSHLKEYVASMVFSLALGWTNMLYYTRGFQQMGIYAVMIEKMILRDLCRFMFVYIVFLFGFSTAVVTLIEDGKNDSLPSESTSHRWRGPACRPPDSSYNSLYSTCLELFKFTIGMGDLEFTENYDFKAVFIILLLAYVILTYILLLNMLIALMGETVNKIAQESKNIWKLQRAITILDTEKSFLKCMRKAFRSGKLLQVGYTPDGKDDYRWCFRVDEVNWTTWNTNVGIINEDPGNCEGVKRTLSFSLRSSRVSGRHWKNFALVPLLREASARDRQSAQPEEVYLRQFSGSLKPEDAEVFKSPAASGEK

SMILES	pIC50	% Inhibition @ 1 μM
CC(=O)N1Cc2cc(Nc3ncnc4c3CCN(c3ncccc3Cl)C4)ccc2C(C)(C)C1 [Example 61]	< 6.00	
Cc1ccc(N2CCc3c(ncnc3Nc3ccc(C(F)(F)F)cc3)C2)cc1 [Example 47, 7-(p-Tolyl)-N-(4-(trifluoromethyl)phenyl)-5,6,7,8-tetrahydropyrido[3,4-d]pyrimidin-4-amine]	6.00 to 6.30	++ (compound exhibited 26-50% inhibition of calcium ion influx induced by proton stimulation)
CC1(C)C(=O)NC(=O)c2cc(Nc3ncnc4c3CCN(c3ncccc3Cl)C4)ccc21 [Example 58, 7-(7-(3-Chloropyridin-2-yl)-5,6,7,8-tetrahydropyrido[3,4-d]pyrimidin-4-ylamino)-4,4-dimethylisoquinoline-1,3(2H,4H)-dione]	< 6.00	
Clc1cccnc1N1CCc2c(ncnc2NCCOc2ccccc2)C1 [Example 52, 7-(3-Chloropyridin-2-yl)-5,6,7,8-tetrahydro-N-(2-phenoxyethyl)pyrido[3,4-d]pyrimidin-4-amine]		+ (compound exhibited 0-25% inhibition of calcium ion influx induced by proton stimulation)
Clc1ccc(CCNc2ncnc3c2CCN(c2ncccc2Cl)C3)cc1 [Example 40, N-(4-Chlorophenethyl)-7-(3-chloropyridin-2-yl)-5,6,7,8-tetrahydropyrido[3,4-d]pyrimidin-4-amine]	< 6.00	+++ (compound exhibited 51-75% inhibition of calcium ion influx induced by proton stimulation)
Clc1ccc(Nc2ncnc3c2CCN(c2ncccc2Cl)C3)cc1Cl [Example 42, N-(3,4-Dichlorophenyl)-7-(3-chloropyridin-2-yl)-5,6,7,8-tetrahydropyrido[3,4-d]pyrimidin-4-amine]		++ (compound exhibited 26-50% inhibition of calcium ion influx induced by proton stimulation)
CC(C)(C)c1ccc(Nc2ncnc3c2CCN(c2ncccc2Cl)C3)cn1 [Example 49, N-(6-tert-Butylpyridin-3-yl)-7-(3-chloropyridin-2-yl)-5,6,7,8-tetrahydropyrido[3,4-d]pyrimidin-4-amine]		++++ (compound exhibited 76% or greater inhibition of calcium ion influx induced by proton stimulation)
Fc1ccc(Nc2ncnc3c2CCN(c2ncccc2Cl)C3)cc1 [Example 19, 7-(3-Chloropyridin-2-yl)-N-(4-fluorophenyl)-5,6,7,8-tetrahydropyrido[3,4-d]pyrimidin-4-amine]	< 6.00	+ (compound exhibited 0-25% inhibition of calcium ion influx induced by proton stimulation)
Cc1cccc(N2CCc3c(ncnc3Nc3ccc4c(c3)OCCO4)C2)c1 [Example 36, (2,3-Dihydro-benzo[1,4]dioxin-6-yl)-(7-m-tolyl-5,6,7,8-tetrahydro-pyrido[3,4-d]pyrimidin-4-yl)-amine]		++ (compound exhibited 26-50% inhibition of calcium ion influx induced by proton stimulation)
Fc1cccnc1N1CCc2c(ncnc2Nc2ccc(C(F)(F)F)cc2)C1 [Example 11, [7-(3-Fluoro-pyridin-2-yl)-5,6,7,8-tetrahydro-pyrido[3,4-d]pyrimidin-4-yl]-(4-trifluoromethyl-phenyl)-amine]	6.30 to 7.00	++++ (compound exhibited 76% or greater inhibition of calcium ion influx induced by proton stimulation)

The next lines start with results.

pIC50	SMILES	% Inhibition @ 1 μM
> 7.00	O=S(=O)(c1ccc(Nc2ncnc3c2CCN(c2ncccc2C(F)(F)F)C3)cc1)C(F)(F)F [Example 76, 7-(3-(trifluoromethyl)pyridin-2-yl)-5,6,7,8-tetrahydro-N-(4-(trifluoromethylsulfonyl)-phenyl)pyrido[3,4-d]pyrimidin-4-amine]	++++ (compound exhibited 76% or greater inhibition of calcium ion influx induced by proton stimulation)
6.30 to 7.00	CN1CCOc2cc(Nc3ncnc4c3CCN(c3ncccc3Cl)C4)ccc21 [Example 65, 7-(3-Chloropyridin-2-yl)-5,6,7,8-tetrahydro-N-(3,4-dihydro-4-methyl-2H-benzo[b][1,4]oxazin-7-yl)pyrido[3,4-d]pyrimidin-4-amine]	+++ (compound exhibited 51-75% inhibition of calcium ion influx induced by proton stimulation)
> 7.00	COC(=O)COc1nc2c(c(Nc3ccc(C(F)(F)F)cc3)n1)CCN(c1ncccc1Cl)C2 [Example 66, Methyl 2-(4-(4-(trifluoromethyl)phenylamino)-7-(3-chloropyridin-2-yl)-5,6,7,8-tetrahydropyrido[3,4-d]pyrimidin-2-yloxy)acetate]	++++ (compound exhibited 76% or greater inhibition of calcium ion influx induced by proton stimulation)
6.30 to 7.00	CC1(C)CNc2cc(Nc3ncnc4c3CCN(c3ncccc3Cl)C4)ccc21 [Example 69, 7-(3-Chloropyridin-2-yl)-5,6,7,8-tetrahydro-N-(3,3-dimethylindolin-6-yl)pyrido[3,4-d]pyrimidin-4-amine]	++++ (compound exhibited 76% or greater inhibition of calcium ion influx induced by proton stimulation)
< 6.00	CC1(C)CNCc2cc(Nc3ncnc4c3CCN(c3ncccc3Cl)C4)ccc21 [Example 62, 7-(3-chloropyridin-2-yl)-5,6,7,8-tetrahydro-N-(1,2,3,4-tetrahydro-4,4-dimethylisoquinolin-7-yl)pyrido[3,4-d]pyrimidin-4-amine]	
> 7.00	CN1CC(C)(C)c2ccc(Nc3ncnc4c3CCN(c3ncccc3Cl)C4)cc21 [Example 70, 7-(3-Chloropyridin-2-yl)-5,6,7,8-tetrahydro-N-(1,3,3-trimethylindolin-6-yl)pyrido[3,4-d]pyrimidin-4-amine]	++++ (compound exhibited 76% or greater inhibition of calcium ion influx induced by proton stimulation)
< 6.00	CC1(C)C(=O)Nc2cc(Nc3ncnc4c3CCN(c3ncccc3Cl)C4)ccc21 [Example 67, 6-(7-(3-Chloropyridin-2-yl)-5,6,7,8-tetrahydropyrido[3,4-d]pyrimidin-4-ylamino)-3,3-dimethylindolin-2-one]	
< 6.00	FC(F)(F)c1ccnc(N2CCc3c(ncnc3Nc3ccc4c(c3)OCCO4)C2)c1 [Example 71, 7-(4-(Trifluoromethyl)pyridin-2-yl)-5,6,7,8-tetrahydro-N-(2,3-dihydrobenzo[b][1,4]dioxin-7-yl)pyrido[3,4-d]pyrimidin-4-amine]	+ (compound exhibited 0-25% inhibition of calcium ion influx induced by proton stimulation)
< 6.00	O=C(O)COc1nc2c(c(Nc3ccc(C(F)(F)F)cc3)n1)CCN(c1ncccc1Cl)C2 [Example 75, 2-(4-(4-(Trifluoromethyl)phenylamino)-7-(3-chloropyridin-2-yl)-5,6,7,8-tetrahydropyrido[3,4-d]pyrimidin-2-yloxy)acetic acid]	+ (compound exhibited 0-25% inhibition of calcium ion influx induced by proton stimulation)
< 6.00	COc1cccc(Nc2ncnc3c2CCN(c2ccc(C(F)(F)F)cn2)C3)c1 [Example 73, 7-(5-(Trifluoromethyl)pyridin-2-yl)-5,6,7,8-tetrahydro-N-(3-methoxyphenyl)pyrido[3,4-d]pyrimidin-4-amine]	+ (compound exhibited 0-25% inhibition of calcium ion influx induced by proton stimulation)
